Values after ≈ are worked out from the molar mass of the structure shown. Values joined by “and” are separate entries in the source; they are usually repeats but may differ in a detail not shown here. Identical values can stand only once.
Assays:
[1] = molecular target: ATP-dependent translocase ABCB1 (Homo sapiens, UniProt P08183); experiment: Inhibition of P-gp in human MES-SA/Dx5 cells; type: cell-based
[2] = molecular target: T1, Cytochrome P450 3A4 (Homo sapiens, UniProt P08684); experiment: Inhibition of CYP3A4 in human liver using luciferin-IPA as substrate microsome preincubated with compound for 10 mins followed by NADPH addition and measured after 5 mins; type: ADME, microsomes
[3] = tested on: MES-SA/Dx5; experiment: Cytotoxicity against human MES-SA/Dx5 cells at 1.28 uM incubated for 3 days by MTT assay relative to control; type: functional; conditions: time 3 day
[4] = molecular target: T1, Cytochrome P450 3A4; experiment: Inhibition of CYP3A4 in human Hepatocyte using Luciferin-IPA as substrate; type: ADME, cell-based
[5] = Apparent permeability of compound across basolateral to apical side in human Caco-2 cells; type: ADME, cell-based
[6] = Equilibrium solubility of compound in PBS at pH 7.4; type: physicochemical; conditions: for solubility: buffer
[7] = Apparent permeability of compound across apical to basolateral side in human Caco-2 cells; type: ADME, cell-based
[8] = Apparent permeability across apical to basolateral side in human Caco-2 cells assessed as drug recovery; type: ADME, cell-based; conditions: read-out: Drug recovery
[9] = Apparent permeability across basolateral to apical side in human Caco-2 cells assessed as drug recovery; type: ADME, cell-based; conditions: read-out: Drug recovery
[10] = Efflux ratio of apparent permeability across basolateral to apical side over apical to basolateral side in human Caco-2 cells; type: ADME, cell-based

Chain of ATP-dependent translocase ABCB1 (P08183 whole entry): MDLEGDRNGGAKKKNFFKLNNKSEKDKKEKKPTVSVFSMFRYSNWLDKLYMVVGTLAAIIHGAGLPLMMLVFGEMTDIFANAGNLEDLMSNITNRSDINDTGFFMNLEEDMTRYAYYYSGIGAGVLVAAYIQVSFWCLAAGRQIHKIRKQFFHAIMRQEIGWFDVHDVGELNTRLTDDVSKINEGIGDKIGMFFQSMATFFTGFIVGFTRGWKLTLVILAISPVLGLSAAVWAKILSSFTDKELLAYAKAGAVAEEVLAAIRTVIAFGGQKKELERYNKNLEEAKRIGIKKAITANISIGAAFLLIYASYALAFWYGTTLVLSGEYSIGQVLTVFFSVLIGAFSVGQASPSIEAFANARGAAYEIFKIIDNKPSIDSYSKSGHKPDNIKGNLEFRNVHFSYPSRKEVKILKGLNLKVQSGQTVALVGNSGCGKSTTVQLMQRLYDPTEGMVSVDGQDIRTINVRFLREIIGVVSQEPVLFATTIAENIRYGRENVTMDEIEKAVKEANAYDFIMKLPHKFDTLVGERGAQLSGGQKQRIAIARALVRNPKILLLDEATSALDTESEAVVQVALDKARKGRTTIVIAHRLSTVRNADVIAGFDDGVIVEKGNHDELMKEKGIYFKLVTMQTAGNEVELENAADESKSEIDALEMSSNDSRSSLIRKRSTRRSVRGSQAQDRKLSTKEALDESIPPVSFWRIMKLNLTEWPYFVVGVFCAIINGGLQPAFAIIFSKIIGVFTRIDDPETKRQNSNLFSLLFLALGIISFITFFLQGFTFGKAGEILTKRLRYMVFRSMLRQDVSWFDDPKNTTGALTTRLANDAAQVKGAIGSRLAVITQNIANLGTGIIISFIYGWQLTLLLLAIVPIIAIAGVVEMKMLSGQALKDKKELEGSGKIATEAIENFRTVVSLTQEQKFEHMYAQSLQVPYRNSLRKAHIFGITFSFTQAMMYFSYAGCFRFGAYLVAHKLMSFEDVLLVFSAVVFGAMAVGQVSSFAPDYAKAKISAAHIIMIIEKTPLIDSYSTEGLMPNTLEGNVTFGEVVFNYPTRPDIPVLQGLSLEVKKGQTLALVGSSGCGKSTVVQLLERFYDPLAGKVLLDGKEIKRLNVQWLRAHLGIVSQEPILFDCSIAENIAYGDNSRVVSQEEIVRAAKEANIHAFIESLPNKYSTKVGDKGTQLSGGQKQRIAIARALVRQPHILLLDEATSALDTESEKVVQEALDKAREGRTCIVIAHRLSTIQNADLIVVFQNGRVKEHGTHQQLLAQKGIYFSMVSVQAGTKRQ
T1 sequence (P08684 whole entry): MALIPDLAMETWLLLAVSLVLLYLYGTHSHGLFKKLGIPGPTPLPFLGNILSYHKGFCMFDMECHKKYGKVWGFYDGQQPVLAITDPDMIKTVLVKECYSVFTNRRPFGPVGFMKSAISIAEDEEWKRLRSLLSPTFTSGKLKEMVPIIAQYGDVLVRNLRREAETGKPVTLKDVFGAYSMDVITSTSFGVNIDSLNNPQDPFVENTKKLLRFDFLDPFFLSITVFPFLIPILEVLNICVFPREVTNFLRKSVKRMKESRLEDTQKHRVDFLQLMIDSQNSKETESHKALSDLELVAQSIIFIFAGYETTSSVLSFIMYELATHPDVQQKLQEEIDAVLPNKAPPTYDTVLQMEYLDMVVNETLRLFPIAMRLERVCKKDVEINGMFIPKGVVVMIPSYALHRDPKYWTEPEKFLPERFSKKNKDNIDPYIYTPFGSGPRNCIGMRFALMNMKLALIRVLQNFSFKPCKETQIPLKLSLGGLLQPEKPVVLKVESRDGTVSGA

EC50 [1] | IC50 [2] | IC50 [4] | Papp B→A [5] [×10⁻⁶ cm/s] | solubility [6] | Papp A→B [7] [×10⁻⁶ cm/s] | recovery [8] [%] | recovery [9] [%] | efflux ratio [10] | solubility thermodynamic ([6]; PBS) [µM] | Papp [5] | Ratio [10] | Compound | Activity [3] [%]
29 nM | > 9000 nM |  |  |  |  |  |  |  |  |  |  | COc1ccc(CN2CCN(c3ccc(NC(=O)c4cc(OC)c(OC)cc4NC(=O)c4cnc5ccccc5c4)cc3)CC2)cc1OC | 1
39 nM | 162 nM | 2400 nM |  |  |  |  |  |  |  |  |  | COc1cc(NC(=O)c2cc(=O)c3ccccc3o2)c(C(=O)Nc2ccc(N3CCN(Cc4cccc(-n5ccnc5)c4)CC3)cc2)cc1OC | 0
19 nM | 1880 nM | 6240 nM |  |  |  |  |  |  |  |  |  | COc1cc(NC(=O)c2cnc3ccccc3c2)c(C(=O)Nc2ccc(N3CCN(Cc4ccc5c(cnn5C)c4)CC3)cc2)cc1OC | 6
221 nM | 298 nM | 1330 nM |  |  |  |  |  |  |  |  |  | COc1cc(NC(=O)c2cc(=O)c3ccccc3o2)c(C(=O)Nc2ccc(C3CCN(Cc4cccc(-n5cncn5)c4)CC3)cc2)cc1OC | 0
45 nM | 334 nM | 1240 nM | 0.4 | Not Determined(Insoluble) | 0.55 | 61 | 72 | 0.7 |  |  |  | COc1cc(NC(=O)c2cnc3ccccc3c2)c(C(=O)Nc2ccc(C3CCN(Cc4cccc(-n5ccnc5)c4)CC3)cc2)cc1OC | 1
121 nM | 449 nM | 1640 nM |  |  |  |  |  |  |  |  |  | COc1cc(NC(=O)c2cc(=O)c3ccccc3o2)c(C(=O)Nc2ccc(N3CCN(Cc4cccc(-c5ccncc5)c4)CC3)cc2)cc1OC | 0
26 nM | 3820 nM | 9000 nM |  |  |  |  |  |  |  |  |  | COc1cc(NC(=O)c2cnc3ccccc3c2)c(C(=O)Nc2ccc(C3CCN(Cc4ccc5c(cnn5C)c4)CC3)cc2)cc1OC | 3
51 nM | 1240 nM | 6450 nM |  |  |  |  |  |  |  |  |  | COc1cc(NC(=O)c2cc(=O)c3ccccc3o2)c(C(=O)Nc2ccc(C3CCN(Cc4ccc5c(c4)OCO5)CC3)cc2)cc1OC | 1
43 nM | > 9000 nM |  |  |  |  |  |  |  |  |  |  | COc1ccc(CN2CCC(c3ccc(NC(=O)c4cc(OC)c(OC)cc4NC(=O)c4cnc5ccccc5c4)cc3)CC2)cc1OC | 3
65 nM and 232 nM | 230 nM and 255 nM | 1180 nM and 492 nM |  |  |  |  |  |  |  |  |  | COc1cc(NC(=O)c2cc(=O)c3ccccc3o2)c(C(=O)Nc2ccc(C3CCN(Cc4cccc(-c5cccnc5)c4)CC3)cc2)cc1OC | 0
55 nM | 283 nM | 1090 nM | 2.36 | Not Determined(Insoluble) | 1.29 | 51 | 60 | 1.8 |  |  |  | COc1cc(NC(=O)c2cnc3ccccc3c2)c(C(=O)Nc2ccc(N3CCN(Cc4cccc(-c5cccnc5)c4)CC3)cc2)cc1OC | 0
40 nM | > 9000 nM |  |  |  |  |  |  |  |  |  |  | COc1ccc(CN2CCC(c3ccc(NC(=O)c4cc(OC)c(OC)cc4NC(=O)c4cc(=O)c5ccccc5o4)cc3)CC2)cc1OC | 0
108 nM | 245 nM | 967 nM |  |  |  |  |  |  |  |  |  | COc1cc(NC(=O)c2cnc3ccccc3c2)c(C(=O)Nc2ccc(C3CCN(Cc4cccc(-c5cccnc5)c4)CC3)cc2)cc1OC | 0
188 nM | 1120 nM | 3210 nM |  |  |  |  |  |  |  |  |  | COc1cc(NC(=O)c2cnc3ccccc3c2)c(C(=O)Nc2ccc(C3CCN(Cc4cccc(-c5ccncc5)c4)CC3)cc2)cc1OC | 3
354 nM | 245 nM | 551 nM |  |  |  |  |  |  |  |  |  | COc1cc(NC(=O)c2cnc3ccccc3c2)c(C(=O)Nc2ccc(N3CCN(Cc4cccc(-n5cncn5)c4)CC3)cc2)cc1OC | 1
98 nM | 540 nM | 1770 nM |  |  |  |  |  |  |  |  |  | COc1cc(NC(=O)c2cnc3ccccc3c2)c(C(=O)Nc2ccc(N3CCN(Cc4cccc(-c5ccncc5)c4)CC3)cc2)cc1OC | 2

EC50 [1] | IC50 [2] | IC50 [4] | Papp B→A [5] [×10⁻⁶ cm/s] | solubility [6] | Papp A→B [7] [×10⁻⁶ cm/s] | recovery [8] [%] | recovery [9] [%] | efflux ratio [10] | solubility thermodynamic ([6]; PBS) [µM] | Papp [5] | Ratio [10] | Compound | Activity [3] [%]
33 nM | 267 nM | 1890 nM | 0.27 |  | 0.17 | 69 | 74 | 1.6 | 0.092 (≈ 0.0614 µg/mL) |  |  | COc1cc(NC(=O)c2cnc3ccccc3c2)c(C(=O)Nc2ccc(N3CCN(Cc4cccc(-n5ccnc5)c4)CC3)cc2)cc1OC | 0
156 nM | 654 nM | 1760 nM |  |  |  |  |  |  |  |  |  | COc1cc(NC(=O)c2cnc3ccccc3c2)c(C(=O)Nc2ccc(C3CCN(Cc4cccc(-n5cncn5)c4)CC3)cc2)cc1OC | 1
21 nM | > 9000 nM |  |  |  |  |  |  |  |  |  |  | COc1ccc(CN2CCN(c3ccc(NC(=O)c4cc(OC)c(OC)cc4NC(=O)c4cc(=O)c5ccccc5o4)cc3)CC2)cc1OC | 5
14 nM | 1060 nM | 8120 nM |  |  |  |  |  |  |  |  |  | COc1cc(NC(=O)c2cc(=O)c3ccccc3o2)c(C(=O)Nc2ccc(N3CCN(Cc4ccc5c(cnn5C)c4)CC3)cc2)cc1OC | 2
30 nM | 1180 nM | 5970 nM |  |  |  |  |  |  |  |  |  | COc1cc(NC(=O)c2cc(=O)c3ccccc3o2)c(C(=O)Nc2ccc(C3CCN(Cc4ccc5c(cnn5C)c4)CC3)cc2)cc1OC | 1
22 nM | 2110 nM | 5530 nM |  |  |  | 75 | 75 |  |  | 31.7 10^-6 cm/s | 14 | COc1cc(NC(=O)c2cnc3ccccc3c2)c(C(=O)Nc2ccc(N3CCN(Cc4ccc5c(c4)OCO5)CC3)cc2)cc1OC | 3
422 nM | > 9000 nM |  |  |  |  |  |  |  |  |  |  | COc1ccc(CN2CCN(c3ccc(NC(=O)c4ccccc4NC(=O)c4cc(=O)c5ccccc5o4)cc3)CC2)cc1OC | 0
512 nM | 399 nM | 1860 nM |  |  |  |  |  |  |  |  |  | O=C(Nc1ccccc1C(=O)Nc1ccc(N2CCN(Cc3cccc(-c4cccnc4)c3)CC2)cc1)c1cc(=O)c2ccccc2o1 | 2
167 nM and 212 nM | 153 nM and 216 nM | 1250 nM and 1160 nM |  |  |  |  |  |  |  |  |  | COc1cc(NC(=O)c2cc(=O)c3ccccc3o2)c(C(=O)Nc2ccc(C3CCN(Cc4cccc(-c5ccncc5)c4)CC3)cc2)cc1OC | 1
43 nM | 339 nM | 609 nM | < 0.08 | Not Determined(Insoluble) | 0.06 | 62 | 86 |  |  |  |  | COc1cc(NC(=O)c2cc(=O)c3ccccc3o2)c(C(=O)Nc2ccc(N3CCN(Cc4cccc(-c5cccnc5)c4)CC3)cc2)cc1OC | 0
39 nM | 3210 nM | 9000 nM |  |  |  |  |  |  |  |  |  | COc1cc(NC(=O)c2cnc3ccccc3c2)c(C(=O)Nc2ccc(C3CCN(Cc4ccc5c(c4)OCO5)CC3)cc2)cc1OC | 1
328 nM | 372 nM | 475 nM |  |  |  |  |  |  |  |  |  | COc1cc(NC(=O)c2cc(=O)c3ccccc3o2)c(C(=O)Nc2ccc(N3CCN(Cc4cccc(-n5cncn5)c4)CC3)cc2)cc1OC | 1
31 nM | 1640 nM | 4660 nM |  |  |  |  |  |  |  |  |  | COc1cc(NC(=O)c2cc(=O)c3ccccc3o2)c(C(=O)Nc2ccc(N3CCN(Cc4ccc5c(c4)OCO5)CC3)cc2)cc1OC | 4
 |  |  | 12.1 |  | 0.98 | 56 | 68 | 12.2 |  |  |  | C[C@H]1O[C@@H](O[C@H]2[C@@H](O)C[C@H](O[C@H]3[C@@H](O)C[C@H](O[C@H]4CC[C@@]5(C)[C@H](CC[C@@H]6[C@@H]5C[C@@H](O)[C@]5(C)[C@@H](C7=CC(=O)OC7)CC[C@]65O)C4)O[C@@H]3C)O[C@@H]2C)C[C@H](O)[C@@H]1O [DIGOXIN] | 
 |  |  |  |  |  |  |  |  |  |  |  | CC(=O)N1CCN(c2ccc(OCC3COC(Cn4ccnc4)(c4ccc(Cl)cc4Cl)O3)cc2)CC1 (centres undefined) [KETOCONAZOLE] | 39
